Assay results reported in US9156790B2, “Anticancer P21-activated kinase inhibitors” (Ohio State Innovation Foundation, priority 2013, dated 2015).
Like-named read-outs stand apart in the source and are kept apart here.

Experiments:
FTC133 cells = assay: MTT cell viability assay, FTC133; type: cell-based, Human; conditions: Homo sapiens, FTC-133, 72-hours of exposure, 1% FBS, mean±standard deviation (n=3), read-out: IC50 for reducing viability of FTC133 cells versus DMSO control
Text: Human thyroid cancer BCPAP, TPC1, and FTC133 cell lines were the generous gifts of Drs. Rebecca Schweppe and Bryan Haugen (University of Colorado Denver) (Schweppe et al., The Journal of clinical endocrinology and metabolism 83:4331-4341 (2008)) with permission from the following originating laboratories: BCPAP—Dr. Fabien, Centre Hospitalier Lyon-Sud, France (Fabien et al., Cancer 73:2206-2212 (1994)); TPC1—Dr. Sato, Kanazawa University, Japan (Tanaka et al., Virology 161:62-411 (1987)); and FTC133—Dr. Goretzki, University of Leipzig, Germany (Goretzki et al., Recent Results Cancer Res 118:48-63 (1990)). The obtained cell lines were confirmed for identity by DNA fingerprinting. BCPAP was grown in RPMI 1640 medium (Life Technologies Co., Carlsbad, Calif.) while FTC133 and TPC1 were grown in DMEM (Life Technologies Co.), both supplemented with 10% fetal bovine serum (FBS) and NEAA unless as noted for experiments.
The effect of OSU-03012 and its derivatives on cell viability was assessed by using the 3-(4,5-dimethylthiazol-2-yl)-2,5-diphenyl-2H-tetrazolium bromide (MTT) assay. Three replicates were performed in each individual experiment, and experiments were repeated at least three separate times. Cells were grown in 96-well plates for 24 hours and were exposed to various concentrations of drugs dissolved in DMSO (final concentration 0.1%) in RPMI 1640 or DMEM containing 1% FBS for 72 hours. 10 μL of 0.5 mg/ml MTT was added to each well and cells were incubated in CO2 at 37° C. for 2 hours. Supernatants were removed from the wells, the reduced MTT dye was solubilized in 100 μL of solution C (12 ml of 1N HCl in 300 mL of isopropanol), and absorbance at 570 nm was determined on a microplate reader.
We assessed the ability of the compounds to reduce cell viability in vitro by MTT assay after 72 hours of continuous exposure. Results are shown in Table 1 and are depicted as the IC50 vs. simultaneously performed DMSO control.
^aThe reported IC50 values are concentrations at which BCPAP, FTC133 and TPC1 cell viability by MTT assays 50% of DMSO control after 72-hours of exposure. Data are presented as mean±standard deviation (n=3). PAK and PDK1 Selectivity In Vivo

CDK5/p25 = CDK5/p25 (Homo sapiens, UniProt Q00535); assay: Kinase profiling panel: CDK5/p25; type: biochemical; conditions: 5 μM compound; average of triplicate
Procedure: (§1) To further probe the selectivity of the compounds 4 and 15, they were subjected for kinase profiling service for screening against a panel of other kinases selected based on the kinase tree at 5 μM concentration, at or above the IC50 for the two compounds versus PAK in both in vitro and cell-based assays. […] PAK1 was not available for testing using this system thus it was not possible to compare directly in this assay system.

PAK6 = PAK6 (Homo sapiens, UniProt Q9NQU5); assay: Kinase profiling panel: PAK6; type: biochemical; conditions: 5 μM compound; average of triplicate
Procedure: as §1

PKBβ = PKBβ (Homo sapiens, UniProt P31751); assay: Kinase profiling panel: PKBβ; type: biochemical; conditions: read-out: % activity vs. DMSO, PKBβ
Procedure: as §1

BCPAP cells = assay: Boyden chamber migration assay, BCPAP; type: cell-based, Human; conditions: 2.5 μM and 5.0 μM, 12 hours, P<0.05 versus DMSO
Procedure: Cells were grown in media containing 10% FBS. After 24 hours, the medium was aspirated, and media containing 1% FBS was added for 24 hours. The cells were trypsinized for 2 to 5 minutes, washed, and resuspended in media containing 1% FBS. The cell concentration was calculated by hemocytometer. Four hundred μl 1% FBS medium was added into 24-well plates, and a Boyden chamber (8 μm pore) was inserted into each well. Cells were added to each insert, and were allowed to attach in an incubator at 37° C. at 5% CO2 for 2 hours. The cells were then exposed to various concentrations of drugs or control diluent for 3 hours. The inserts were switched to a new well containing media containing 10% FBS, and the chamber was incubated for 12 or 24 hours depending on the migration rate of the cell line. The cells on and under the Boyden chamber membrane were fixed with 3.7% formaldehyde containing 0.05% crystal violet for 15 min after washing cells with PBS. The chambers were washed with distilled water. […] The Q-tips containing the scraped cells and the Boyden chamber containing the non-migrated cells were separately incubated in 80% methanol, shaken at 500 g for 30 minutes, and the extracted dye was measured at 570 nm. Migration was quantified as the ratio of the migrated cells over the total cells (non-migrated plus […]). […]

Chain of PKBβ (P31751 whole entry, species assumed): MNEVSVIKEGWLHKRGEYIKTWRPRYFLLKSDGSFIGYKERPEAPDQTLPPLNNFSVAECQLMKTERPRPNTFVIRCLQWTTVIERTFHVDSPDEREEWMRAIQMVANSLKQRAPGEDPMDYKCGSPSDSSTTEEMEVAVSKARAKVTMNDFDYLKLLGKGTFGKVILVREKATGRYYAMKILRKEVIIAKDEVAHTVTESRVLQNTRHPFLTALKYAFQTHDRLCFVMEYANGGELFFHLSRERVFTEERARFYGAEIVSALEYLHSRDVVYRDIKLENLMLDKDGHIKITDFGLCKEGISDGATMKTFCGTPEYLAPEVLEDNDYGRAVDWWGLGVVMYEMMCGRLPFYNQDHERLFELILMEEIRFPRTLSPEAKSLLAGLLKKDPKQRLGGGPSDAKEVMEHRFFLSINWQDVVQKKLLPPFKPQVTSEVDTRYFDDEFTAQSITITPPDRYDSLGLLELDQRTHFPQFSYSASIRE
Chain of PAK6 (Q9NQU5 whole entry, species assumed): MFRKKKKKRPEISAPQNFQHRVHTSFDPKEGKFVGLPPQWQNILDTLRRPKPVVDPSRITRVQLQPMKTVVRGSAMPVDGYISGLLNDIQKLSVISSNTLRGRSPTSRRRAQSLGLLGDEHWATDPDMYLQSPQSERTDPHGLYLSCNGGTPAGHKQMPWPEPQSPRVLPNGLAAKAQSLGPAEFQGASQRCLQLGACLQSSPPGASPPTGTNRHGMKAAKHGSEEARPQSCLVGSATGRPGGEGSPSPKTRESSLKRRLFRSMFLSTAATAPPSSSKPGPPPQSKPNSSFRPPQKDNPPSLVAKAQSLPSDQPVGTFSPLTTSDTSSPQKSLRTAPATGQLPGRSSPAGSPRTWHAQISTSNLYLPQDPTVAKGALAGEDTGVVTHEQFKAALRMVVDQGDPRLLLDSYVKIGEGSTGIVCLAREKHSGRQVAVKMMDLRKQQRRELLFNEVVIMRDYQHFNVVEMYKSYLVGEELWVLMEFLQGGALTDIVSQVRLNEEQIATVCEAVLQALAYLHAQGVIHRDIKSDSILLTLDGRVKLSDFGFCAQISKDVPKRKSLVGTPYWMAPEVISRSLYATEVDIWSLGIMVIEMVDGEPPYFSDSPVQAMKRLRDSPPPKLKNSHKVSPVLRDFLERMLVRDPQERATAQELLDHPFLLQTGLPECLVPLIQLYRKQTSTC
Chain of CDK5/p25 (Q00535 whole entry, species assumed): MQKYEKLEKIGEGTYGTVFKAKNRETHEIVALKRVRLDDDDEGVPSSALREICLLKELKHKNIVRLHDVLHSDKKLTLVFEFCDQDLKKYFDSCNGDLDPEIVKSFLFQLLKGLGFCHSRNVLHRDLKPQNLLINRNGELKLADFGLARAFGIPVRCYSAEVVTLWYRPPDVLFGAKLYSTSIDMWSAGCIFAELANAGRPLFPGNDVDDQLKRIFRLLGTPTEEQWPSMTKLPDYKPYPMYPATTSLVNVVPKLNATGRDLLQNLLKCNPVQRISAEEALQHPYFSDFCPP
Chain of CDK5/p25 (Q15078 99-307 partner limits assumed, species assumed): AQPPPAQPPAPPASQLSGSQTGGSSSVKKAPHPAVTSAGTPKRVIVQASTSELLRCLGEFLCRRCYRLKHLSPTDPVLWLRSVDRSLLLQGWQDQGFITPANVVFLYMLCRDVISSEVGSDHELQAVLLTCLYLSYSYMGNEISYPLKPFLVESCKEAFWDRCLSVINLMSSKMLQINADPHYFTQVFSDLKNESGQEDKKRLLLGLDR

Compound | IC50 (FTC133 cells) | % activity vs. DMSO, CDK5/p25 (CDK5/p25) | % activity vs. DMSO, PAK6 (PAK6) | remaining activity at 5 µM (PKBβ; 5 μM compound, average of triplicate) | Migration of BCPAP cells (BCPAP cells) | remaining activity at 5 µM (PKBβ)
NCCC(=O)Nc1ccc(-n2nc(C(F)(F)F)cc2-c2ccc3ccc4ccccc4c3c2)cc1 [Compound 4, 3-amino-N-(4-(5-(phenanthren-3-yl)-3-(trifluoromethyl)-1H-pyrazol-1-yl)phenyl)-propanamide] | 2.68 ± 2.08 µM | 113% | 81% | 76% | inhibited migration | 
CC(C)NC(=O)c1cc(-c2ccc3ccc4ccccc4c3c2)n(-c2ccc(NC(=O)CN)cc2)n1 [Compound 15, 1-(4-(2-Aminoacetamido)phenyl)-N-isopropyl-5-(phenanthren-3-yl)-1H-pyrazole-3-carboxamide] | 3.37 ± 3.31 µM | 93% | 101% |  | inhibited migration | 84%
